Values joined by “and” are separate entries in the source; they are usually repeats but may differ in a detail not shown here. Equal values may be shown once. Read-outs that look alike come from different tables or passages of the source.
Assays:
[1] = system: Colo-205 tumor xenografts; assay: Rat Colo-205 colorectal xenograft efficacy; assay type: in vivo; conditions: for tumor growth inhibition: 5 days of 7-day cycle, Day 31
Procedure: The efficacy of a Cdc7 inhibitor (compound SRA141) as a monotherapy was tested in a rat xenograft model of colorectal cancer (CRC) (FIG. 7). Female Rowett nude rats were inoculated sub-cutaneously with 2×10^7 COLO-205 human colorectal carcinoma cells. All rats were gamma-irradiated (4Gy) 24 hours before tumor cell injection. The COLO-205 cells were injected in 0.2 mL PBS in 1:1 Matrigel®. Female The nude rats bearing Colo-205 tumor xenografts were orally administered (i) vehicle control (0.5% CMC-Na/1% Lutrol F-68) or (ii) SRA141 150 mg/kg once a day (QD) for 5 consecutive days of a 7-day cycle for 6 weeks or (iii) SRA141 75 mg/kg twice a day (BID) for 5 consecutive days of a 7-day cycle for 6 weeks (n=7 per treatment group). Tumor growth inhibition was calculated on Day 31, the final day all vehicle control animals remained on study. Tumor volume measurements and body weight measurements were taken biweekly.

human lymphocyte = assay: Human lymphocyte chromosomal aberration assay; assay type: cell-based; conditions: in vitro
Description: SRA141 was negative for both mutagenicity and clastogenicity in in vitro bacterial reverse mutation and human lymphocyte chromosomal aberration assays.

Cdc7 = Cdc7 (Homo sapiens, UniProt O00311); assay: In vitro biochemical kinase assay
Procedure: Inhibition of Cdc7 by SRA141 was measured using in vitro kinase assays.

MV-4-11 cancer cells = assay: MV-4-11 human leukemia systemic survival study; assay type: in vivo, mouse
Procedure: Female NOD SCID mice intravenously inoculated with MV-4-11 cancer cells were administered (i) vehicle control (0.1 M HCl/0.5% MC400, oral) or (ii) SRA141 initially at 60 mg/kg BID for 5 consecutive days of a 7-day cycle from Days 0 to 21, and then due to significant body weight loss, at 40 mg/kg BID on the same schedule from Days 22 to 73 (n=10 per treatment group). Survival was the only efficacy endpoint in this study, given the systemic nature of the cancer model.

CYP 3A4/5 = assay: In vitro time and metabolism-dependent CYP inhibition; assay type: in vitro ADME; conditions: human
AM7577 = assay: AML PDX ex vivo 3D culture, 5 days; assay type: cell-based
Procedure: (§1) The activity of SRA141 was investigated in in vitro and ex vivo three-dimensional (3D) cultures prepared from three AML cell lines (EOL-1, Molm-16 and MV-4-11) and three AML PDX models (AM5512, AM7440 and AM7577), respectively. Tumor cultures were treated with SRA141 (0.08 to 33 μM) for 5 days.

AM7440 = assay: AML PDX ex vivo 3D culture, 5 days; assay type: cell-based
Procedure: as §1

AM5512 = assay: AML PDX ex vivo 3D culture, 5 days; assay type: cell-based
Procedure: as §1

MV-4-11 = assay: AML 3D culture, 5 days; assay type: cell-based; conditions: Homo sapiens, MV4-11; MV-4-11 cell line
Procedure: as §1

Molm-16 = assay: AML 3D culture, 5 days; assay type: cell-based; conditions: MOLM16; Molm-16 cell line
Procedure: as §1

EOL-1 = assay: AML 3D culture, 5 days; assay type: cell-based; conditions: Homo sapiens, EOL1; EOL-1 cell line
Procedure: as §1

[2] = system: Phosphorylation of MCM2 at Ser53 (Colo-205 cells); assay: Durability of Cdc7 inhibition after washout (pMCM2 Ser53); assay type: cell-based, human; conditions: 24 hours after washout
Procedure: The durability of drug-induced Cdc7 inhibition was investigated in Colo-205 cells treated with two concentrations of SRA141 (0.1 μM and 1 μM) for 48 hours, followed by either immediate cell harvest, or removal of the drug incubate followed by an additional 24 hours incubation prior to cell harvest. Phosphorylation of MCM2 at Ser53, a target site of Cdc7 activity, was compared between the two conditions.

[3] = In vitro metabolism in hepatocytes; assay type: in vitro ADME
Description: Eleven metabolites were identified across species, of which 6 occurred in the human matrix. One human-specific metabolite was identified, but only at trace levels. The mouse, rat and dog hepatocyte metabolite profiles contained all the other human metabolites.

OAT3 = OAT3 (Homo sapiens, UniProt Q8TCC7); assay: In vitro transporter inhibition; assay type: in vitro ADME
[4] = 4-cycle repeat oral dose toxicology study (5 days on/2 days off); assay type: in vivo, rat; conditions: for Cmax / AUC(0-t): plasma, po; for AUC(0-t): read-out: AUC24 h
Procedure: Toxicology studies evaluating SRA141 were conducted in rat and dog following single and repeat oral dosing for up to 4 cycles (5 days on/2 days off per cycle). In addition, the potential genetic toxicity of SRA141 was evaluated in vitro.

[5] = system: MDA-MB-486 breast tumor xenografts; assay: MDA-MB-486 breast xenograft study; assay type: in vivo; conditions: for tumor growth inhibition: 5 weeks, Day 35
Procedure: Female CB-17 SCID mice bearing MDA-MB-486 breast tumor xenografts were orally administered (i) vehicle control (0.1 M HCl/0.5% MC400) or (ii) SRA141 30 or 60 mg/kg BID for 5 weeks (n=10 per treatment group). Tumor growth inhibition was calculated on Day 35, the final day of the study.

[6] = system: MCM2 at Ser40/41 and Ser53 (MV411 cells); assay: Phosphorylation status of Cdc7 target MCM2 in cells; assay type: cell-based
Procedure: MV411 cells were also treated with SRA141 in a dose-dependent manner (at concentrations between 0.5 and 3.3 μM) and were subsequently assessed for phosphorylation status of MCM2 at Ser40/41 and Ser53.

[7] = 60 then 40 mg/kg BID, 5 days of 7-day cycle
[8] = 50 mg/kg/day, at NOAEL, rat, female
[9] = 50 mg/kg/day, at NOAEL, rat, male
[10] = 100 mg/kg/day, at MTD/HNSTD, rat, female
[11] = 100 mg/kg/day, at MTD/HNSTD, rat, male

Chain of Cdc7 (O00311 whole entry): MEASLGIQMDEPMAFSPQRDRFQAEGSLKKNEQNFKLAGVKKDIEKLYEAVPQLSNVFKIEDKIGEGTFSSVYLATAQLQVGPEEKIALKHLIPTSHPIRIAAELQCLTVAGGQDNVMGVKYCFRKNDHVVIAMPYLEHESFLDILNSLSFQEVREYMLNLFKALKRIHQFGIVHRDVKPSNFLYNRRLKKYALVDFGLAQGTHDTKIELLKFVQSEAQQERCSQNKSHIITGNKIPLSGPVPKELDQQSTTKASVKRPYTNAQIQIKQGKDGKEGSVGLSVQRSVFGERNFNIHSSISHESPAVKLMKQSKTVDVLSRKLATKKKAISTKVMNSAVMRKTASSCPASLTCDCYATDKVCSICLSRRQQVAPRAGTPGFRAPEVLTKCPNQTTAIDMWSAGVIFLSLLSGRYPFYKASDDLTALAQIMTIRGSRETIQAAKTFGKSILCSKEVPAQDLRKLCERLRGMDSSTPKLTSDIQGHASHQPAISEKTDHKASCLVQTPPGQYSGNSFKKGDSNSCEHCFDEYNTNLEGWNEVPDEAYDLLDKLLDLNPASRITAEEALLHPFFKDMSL
Chain of Cdc7 (Q9UBU7 whole entry partner): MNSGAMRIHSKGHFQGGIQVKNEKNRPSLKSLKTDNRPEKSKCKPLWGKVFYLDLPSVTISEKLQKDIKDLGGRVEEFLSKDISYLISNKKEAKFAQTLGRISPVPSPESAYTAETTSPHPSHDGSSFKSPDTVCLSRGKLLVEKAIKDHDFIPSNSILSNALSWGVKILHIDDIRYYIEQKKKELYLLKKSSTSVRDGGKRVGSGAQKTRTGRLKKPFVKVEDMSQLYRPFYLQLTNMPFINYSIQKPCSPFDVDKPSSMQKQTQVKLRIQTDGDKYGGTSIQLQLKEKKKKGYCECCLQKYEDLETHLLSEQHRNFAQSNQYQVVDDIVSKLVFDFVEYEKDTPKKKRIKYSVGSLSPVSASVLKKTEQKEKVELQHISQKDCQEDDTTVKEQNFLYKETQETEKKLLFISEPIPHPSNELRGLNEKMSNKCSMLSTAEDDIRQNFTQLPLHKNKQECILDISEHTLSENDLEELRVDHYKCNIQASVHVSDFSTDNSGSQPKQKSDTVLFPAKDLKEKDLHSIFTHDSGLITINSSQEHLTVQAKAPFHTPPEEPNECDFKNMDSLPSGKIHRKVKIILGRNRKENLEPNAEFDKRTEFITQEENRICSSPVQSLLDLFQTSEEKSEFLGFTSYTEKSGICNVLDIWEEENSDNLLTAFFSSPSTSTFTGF
Chain of OAT3 (Q8TCC7 whole entry): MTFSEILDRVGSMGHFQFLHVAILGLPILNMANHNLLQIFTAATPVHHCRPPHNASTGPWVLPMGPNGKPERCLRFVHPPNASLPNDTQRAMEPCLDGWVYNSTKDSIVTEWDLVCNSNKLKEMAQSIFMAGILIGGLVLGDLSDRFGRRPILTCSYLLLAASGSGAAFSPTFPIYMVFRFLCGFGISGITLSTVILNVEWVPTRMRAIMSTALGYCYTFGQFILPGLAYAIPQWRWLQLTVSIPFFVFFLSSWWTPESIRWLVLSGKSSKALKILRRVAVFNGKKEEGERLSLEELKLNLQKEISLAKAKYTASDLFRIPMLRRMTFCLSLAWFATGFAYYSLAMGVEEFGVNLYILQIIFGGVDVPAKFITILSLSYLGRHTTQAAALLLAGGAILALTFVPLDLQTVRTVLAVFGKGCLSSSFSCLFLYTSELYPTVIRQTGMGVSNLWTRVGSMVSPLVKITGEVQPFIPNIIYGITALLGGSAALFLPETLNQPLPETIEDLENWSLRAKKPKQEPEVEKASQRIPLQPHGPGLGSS

With `CCOC(=O)C1=C(NN2CCN(CC(F)(F)F)CC2)O/C(=C\c2c[nH]c3ncccc23)C1=O` [SRA141] the “complete tumor regressions (no measurable tumor for 3 consecutive measurements)” value ([1]; 75 mg/kg BID) was 4 of 7, the “partial regression (tumor volume <50% of initial volume for 3 consecutive measurements)” value ([1]; 75 mg/kg BID) was 1 of 7 and the tumor growth inhibition ([1]; 75 mg/kg BID) was 93%. For the same compound, the tumor growth inhibition ([1]; 150 mg/kg QD) was 50%, the clastogenicity (human lymphocyte) was “negative” and the IC50 (Cdc7; no pre-incubation) was 4 nM. For the same compound, the IC50 (Cdc7; pre-incubation with Cdc7 enzyme for 1 hour) was 1.4 nM, the “median survival, all animals including premature decedents” value (MV-4-11 cancer cells; [7]) was 35 days and the “median survival, premature decedents censored” value (MV-4-11 cancer cells; [7]) was “greater than 99 days”. For the same compound, the “mice with body weight loss greater than 20%” value (MV-4-11 cancer cells; SRA141-treated mice) was “One of ten”, the IC50 (CYP 3A4/5) was 6200 to 6700 nM and the IC50 (AM7577) was 150 nM. The IC50 (AM7440) was 1610 nM, the IC50 (AM5512) was 3200 nM and 3160 nM and the IC50 (MV-4-11) was 1440 nM. The IC50 (Molm-16) was 240 nM, the IC50 (EOL-1) was 270 nM and the “Cdc7 activity (pMCM2 Ser53) after washout” value ([2]; 0.1 μM for 48 hours) was “recovery of Cdc7 activity by 24 hours following compound washout”. The “Cdc7 activity (pMCM2 Ser53) after washout” value ([2]; 1 μM for 48 hours) was “prolonged pMCM2 inhibition was observed at 24 hours following washout”, the metabolic stability ([3]; dog hepatocytes) was “favorable metabolic stability” and the metabolic stability ([3]; rat hepatocytes) was “favorable metabolic stability”. It also gave an inhibition at 10 µM (OAT3) of over 50%, an MTD at 4 cycles (5 days on/2 days off) ([4]; in vivo, oral, rat (MTD), read-out: MTD/HNSTD Dose) of 100 mg/kg/day and a Cmax [4, 8] of 711 ng/mL. It also gave an AUC(0-t) [4, 8] of 8550 ng·h/mL, a Cmax [4, 9] of 289 ng/mL and an AUC(0-t) [4, 9] of 2870 ng·h/mL. It also gave a Cmax [4, 10] of 1610 ng/mL, an AUC(0-t) [4, 10] of 29000 ng·h/mL and a Cmax [4, 11] of 390 ng/mL. For the same compound, the AUC(0-t) [4, 11] was 5130 ng·h/mL, the “NOAEL Dose” value ([4]; rat) was 300 mg/m2/day and the “MTD/HNSTD Dose” value ([4]; rat (MTD)) was 600 mg/m2/day. The “potential target organs for SRA141-related toxicity” value ([4]; rat and dog repeat-dose studies together) was “gallbladder/biliary system, lymphoid tissues (spleen, thymus, lymph node and GALT), bone marrow, liver, kidney, male and female reproductive tract, peripheral leukocytes, and salivary gland”, the NOAEL at 4 cycles (5 days on/2 days off) ([4]; rat, in vivo, oral) was 50 mg/kg/day and the tolerability ([5]; 30 mg/kg BID) was “well tolerated”. For the same compound, the tumor growth inhibition ([5]; 30 mg/kg BID) was 26%, the “mice with maximum body weight loss greater than 20%” value ([5]; 60 mg/kg BID) was “Six of 10” and the tumor growth inhibition ([5]; 60 mg/kg BID) was 53%. For the same compound, the “concentration from which MCM2 phosphorylation at Ser40/41 and Ser53 was reduced” value [6] was 0.5 µM.
